The subject of series [1] is human platelet aggregation. Kind of series: human platelet aggregation inhibition. As to conditions: purified inhibitor, red crystals, read-out: ic50 activity against human platelet aggregation. Format: cell-based.
A further series concerns the target T1, soybean lipoxygenase (Glycine max, UniProt P08170).
T1 sequence (P08170 1-839): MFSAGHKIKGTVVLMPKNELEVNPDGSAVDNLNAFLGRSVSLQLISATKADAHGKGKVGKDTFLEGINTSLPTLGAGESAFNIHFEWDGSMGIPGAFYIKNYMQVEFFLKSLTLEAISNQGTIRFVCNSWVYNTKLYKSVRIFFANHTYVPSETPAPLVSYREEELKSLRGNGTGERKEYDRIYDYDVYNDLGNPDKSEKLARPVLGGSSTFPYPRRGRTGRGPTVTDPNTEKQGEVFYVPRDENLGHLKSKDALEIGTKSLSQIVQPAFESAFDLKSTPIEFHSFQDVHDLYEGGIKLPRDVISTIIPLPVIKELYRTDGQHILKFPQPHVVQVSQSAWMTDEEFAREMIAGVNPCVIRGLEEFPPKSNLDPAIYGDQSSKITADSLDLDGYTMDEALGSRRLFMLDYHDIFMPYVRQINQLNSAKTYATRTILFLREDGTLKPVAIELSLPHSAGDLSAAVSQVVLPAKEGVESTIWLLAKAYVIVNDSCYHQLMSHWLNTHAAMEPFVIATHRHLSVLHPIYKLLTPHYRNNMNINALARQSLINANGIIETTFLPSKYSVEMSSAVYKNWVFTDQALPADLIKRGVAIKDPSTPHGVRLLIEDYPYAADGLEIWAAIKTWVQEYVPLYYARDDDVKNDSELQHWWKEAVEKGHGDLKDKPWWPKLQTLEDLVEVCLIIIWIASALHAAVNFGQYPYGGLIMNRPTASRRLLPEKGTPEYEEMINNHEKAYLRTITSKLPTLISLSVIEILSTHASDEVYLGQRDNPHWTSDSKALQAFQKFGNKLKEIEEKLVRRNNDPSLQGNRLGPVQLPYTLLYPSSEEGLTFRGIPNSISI
The experiment in a line: soybean lipoxygenase inhibition. The note with it: purified inhibitor, red crystals; pH 9; read-out: ic50 activity against soybean lipoxygenase. The series is classed as biochemical.

Series [2] is described as follows: solubility in organic solvents. Format: physicochemical. The note with it: in chloroform, dimethylsulfoxide, acetonitrile.

In general, IC50 refers to the concentration that gives 50% inhibition.

Consider `CCC(=O)C=CC=CC(C)=CC=CC=Cc1ccccc1` [inhibitor, 8-methyl 13-phenyl trideca 4,6,8,10,12 pentene-3-one], for which the IC50 worked out at 234 µM in series [1] and 95.6 µM on soybean lipoxygenase. The Solubility result in series [2] was “highly soluble”.

Values taken from patent publication EP1409705B1, “A PROCESS FOR THE PRODUCTION OF AN INHIBITOR OF HUMAN PLATELET AGGREGATION AND SOYBEAN LIPOXYGENASE” (Council of Scientific and Industrial Research;an Indian …, priority 2001, dated 2002).
